Calls of active or inactive are those of the source. No rule for the calls is given here. Where only a bound is given, the exact number is not on record here.

The target of this assay is X-box-binding protein 1 (Homo sapiens) (UniProt P17861). As to the kind of experiment: XBP1 reporter suppression in cells – counter-screen, dose response (AID 504313).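 Also: CHO cells carrying an XBP1 reporter stimulated with tunicamycin; potency is for inhibition of the tunicamycin-induced reporter signal.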 To be noted: XBP1 reporter cell assay, percent of control.
In the case of `O=C(c1ccc(Cl)cc1)c1c[nH]c(C(=O)NNc2cccc(Cl)n2)c1`, the IC50 is > 10 µM (inactive). Take `O=[N+]([O-])c1c(NCCCO)cc(Sc2ccc(Cl)cc2)c2nonc12`: the IC50 entry was “inactive”. `COc1ccc(CC(=O)Nc2cccc(-c3nnc(-c4cccc(C)c4)o3)c2)cc1OC`: the IC50 result was “inactive”. Turning to `Oc1ccc(Cl)cc1-c1cc(-c2ccccc2)n[nH]1`, the IC50 is > 10 µM (inactive). Take `CC1=C(C)/C(=N\OS(=O)(=O)c2ccc(C)cc2)C=CC1=O`: the IC50 is 1.63 µM. For `CCC1CCCCN1S(=O)(=O)c1ccc(C(=O)Nc2nnc(-c3ccccc3Cl)o2)cc1` (configuration not stated) the value was “inactive”; for `CCOc1cc(C(=O)CSc2nnc(CNc3ccc(Cl)cc3)o2)ccc1NC(=O)CC`, “inactive”. For `Cc1ccc(NC(=O)CCl)cc1S(=O)(=O)N1CCCCCC1` the value was “inactive”; for `O=S(=O)(Nc1cccc2c1CCCC2)c1cccc(C(F)(F)F)c1`, “inactive”; for `COC(=O)c1ccc2c(c1)C(C)(C)C(/C=C/c1ccc(OC)c(OC)c1OC)=[N+]2C`, “inactive”. On to `Cc1cc2c(cc1C)CSC(c1c(O)ccc3ccccc13)SC2`, for which the IC50 was > 10 µM (inactive).

Turning to `CC(C)(C)OC(=O)N[C@@H](Cc1ccccc1)c1nnc(S(=O)(=O)Cc2ccccc2)o1`, the IC50 entry is “inactive”. In the case of `COc1cccc(N2CCN(c3ncnc4c3[nH]c3ccccc34)CC2C)c1` (configuration not stated), the IC50 result was “inactive”. Turning to `O=S(=O)(NC1CC1)c1ccc(S(=O)(=O)N2CCCC3(CCCCC3)C2)cc1`, the IC50 entry was “inactive”. Take `COc1cc(C(=O)O/N=C2\C=CC(=O)C(C)=C2)cc(OC)c1OC`: the IC50 is > 10 µM (inactive). As for `O=C1C(C2=NC(c3ccccn3)C3C(=O)N(c4ccc(OC(F)(F)F)cc4)C(=O)C23)=C(O)c2ccccc21` (configuration not stated), the IC50 result was “inactive”. Turning to `Cn1c(=O)c(C(=O)Nc2ncccc2O)c(O)c2ccccc21`, the IC50 is > 10 µM (inactive).

As to `CCn1c(C)nc2cc(-c3nnc(-c4c(-c5ccccc5)noc4C)o3)ccc21`, the IC50 was > 10 µM (inactive).

Consider `CC(C)=C1C2CCC1C(C(=O)Nc1sc(C)c(-c3ccc(C(C)C)cc3)c1C(N)=O)C2C(=O)O` (configuration not stated), for which the IC50 result was “inactive”.

As for `Cn1c(=O)[nH]c(=O)c2[nH]c(N(Cc3ccccc3)Cc3ccccc3)nc21`, the IC50 is > 10 µM (inactive). Take `CCCCn1c(/N=C/c2c[nH]c3ccccc23)nc2ccccc21`: the IC50 was > 10 µM (inactive). As to `COc1ccc(Cc2nc3ccccc3n2CC(=O)N/N=C/c2ccc(C)cc2O)cc1OC`, the IC50 was > 10 µM (inactive).

With `C/C(N)=C(/C#N)C(=O)COC(=O)C1CCC(C(C)(C)C)CC1` (configuration not stated), the IC50 was > 10 µM (inactive).

`O=C(COc1ccc(Cl)cc1Cl)NCCC1=CCCCC1`: the IC50 is 4.23 µM.

As for `CC(/C=N/n1c(C2CCCCC2)n[nH]c1=S)=C\c1ccccc1`, the IC50 is > 10 µM (inactive). For `CC(C)(C)C(=O)Cn1ncc(Br)c(Br)c1=O` the value was > 10 µM (inactive); for `O=C(NC(Nc1nc2ccc([N+](=O)[O-])cc2s1)(C(F)(F)F)C(F)(F)F)c1ccccc1Cl`, 0.34 µM; for `CCCCCCn1c(N2CCC(C)CC2)nc2c1c(=O)[nH]c(=O)n2C`, > 10 µM (inactive). In the case of `CCCOC(=O)c1ccc(Oc2c(-c3ccc(OCC)cc3O)n[nH]c2C)cc1`, the IC50 entry is “inactive”. In the case of `CC1CCC(C(C)C)C(OC(=O)COC(=O)c2cc(O)ccc2N)C1` (configuration not stated), the IC50 result was “inactive”. With `CNc1ccc2oc(C[C@H]3O[C@@]4(CC[C@H]3C)O[C@H]([C@H](C)C(=O)c3ccc[nH]3)[C@H](C)C[C@H]4C)nc2c1C(=O)O`, the IC50 was 1.41 µM. As to `CCN(CC)S(=O)(=O)c1cccc(NC(=O)Nc2cccc(C(F)(F)F)c2)c1`, the IC50 entry was “inactive”.

`Cc1ccc(-c2nn(-c3ccccc3)cc2/C=N/NC(=O)c2ccc(Br)o2)cc1`: the IC50 entry was “inactive”.

As for `CC1CN(S(=O)(=O)c2ccc(C(=O)Nc3nc(-c4cc5ccccc5o4)cs3)cc2)CC(C)O1` (configuration not stated), the IC50 is > 10 µM (inactive). Consider `C=CCN1C(=O)/C(=C/c2ccc(OC(C)=O)c(OCC)c2[N+](=O)[O-])SC1=S`, for which the IC50 result was “inactive”. Take `C=CS(=O)(=O)c1ccc(Oc2ccc(S(=O)(=O)C=C)cc2)cc1`: the IC50 was 1 µM. With `CCCCc1nc(NCCN)c(C#N)c2c1CSC(C)(C)C2`, the IC50 entry was “inactive”. For the compound `COc1ccc(OC)c2sc(NC(=O)c3ccc(Cl)s3)nc12`, the IC50 was > 10 µM (inactive). As to `O=C(/C=C/c1cccc(C(F)(F)F)c1)Nc1cccc(C(F)(F)F)c1`, the IC50 result is “inactive”. On to `CC(C)(C)c1ccc(OCC(=O)N/N=C/C2CC=CCC2)cc1` (configuration not stated), for which the IC50 result was “inactive”. Take `CCC(C)[C@@H](NC(=O)OC(C)(C)C)c1nnc(S(=O)(=O)Cc2cccc(C)c2)o1` (some centres not stated): the IC50 was 4.55 µM. Take `CC(C)(C)c1cc(-c2csc(Nc3ccccc3)[n+]2Cc2ccc(C(=O)O)cc2)cc(C(C)(C)C)c1O`: the IC50 entry is “inactive”. As for `CC(C)C[C@H](NC(=O)OC(C)(C)C)c1nnc(SCC(=O)Nc2ccc(Br)cc2)o1`, the IC50 is 4.92 µM. With `COc1ccc(-c2nc(NC(=O)Cn3ccc(C(F)(F)F)n3)sc2C)cc1`, the IC50 was > 10 µM (inactive). For `COC(=O)c1ccc2c(c1)C(C)(C)C(/C=C/c1ccc(O)cc1)=[N+]2C` the value was > 10 µM (inactive). `Oc1ccc(/C=N/Nc2nc(N3CCCCCC3)nc(N3CCCCCC3)n2)c(O)c1`: the IC50 was > 10 µM (inactive). Turning to `O=C(COCC(=O)Nc1cccc(C(F)(F)F)c1)Nc1cccc(C(F)(F)F)c1`, the IC50 result was “inactive”. As for `CCc1ccc(OCC(=O)NC(NC(=S)Nc2ccc(C)cc2C)C(Cl)(Cl)Cl)cc1` (configuration not stated), the IC50 result was “inactive”.

Take `CCc1c(C)sc(NC(=O)CSc2nc3c(c(C(F)(F)F)n2)CCc2ccccc2-3)c1C#N`: the IC50 is > 10 µM (inactive). As for `CC(/C=C1\SC(=O)N(CCCC(=O)O)C1=O)=C\c1ccccc1`, the IC50 is less than 0.16 µM. Consider `O=c1c2ccccc2nc2n1CCN2Cc1ccc(Cl)cc1`, for which the IC50 was > 10 µM (inactive). Regarding `CC(C)(C)c1ccc(CN2N=Nc3ccccc3S2(=O)=O)cc1`, the IC50 entry was “inactive”. Regarding `Cc1nn(C(C)(C)C)c(C)c1/C=N/OC(=O)Nc1ccc(Cl)cc1`, the IC50 is less than 0.16 µM. For the compound `CCCCC(CC)C(=O)Oc1ccc(O)c(C(C)(C)C)c1` (configuration not stated), the IC50 entry is “inactive”. In the case of `Cc1ccn2cc(-c3cc4ccccc4oc3=O)nc2c1`, the IC50 result was “inactive”. For `C=C1C(=O)C=C2CN(C(=O)c3ccccc3)[C@@](Cc3ccc(F)cc3)(C(=O)OC)[C@@H]12` the value was 1.03 µM; for `O=C1C(N2CCOCC2)=C(n2nnc3ccccc32)C(=O)c2ccccc21`, “inactive”; for `CC(C)(C)C1CCC(C(=O)OCC(=O)c2ccc[nH]2)CC1` (configuration not stated), “inactive”. On to `COc1ccc(OCc2cccc(C(=O)O)c2)cc1`, for which the IC50 was 0.4 µM. Regarding `CCOC(=O)C(NC(=O)Nc1cccc(C)n1)(OCC(F)(F)F)C(F)(F)F` (configuration not stated), the IC50 result is “inactive”. Consider `CC1=C/C(=N\OS(=O)(=O)c2ccccc2)C(C)=CC1=O`, for which the IC50 is 2.69 µM. On to `Cn1cnc([N+](=O)[O-])c1S(=O)(=O)c1ccc(Cl)cc1`, for which the IC50 entry was “inactive”. As to `Cc1cc(/C=N/n2cnnc2)c(C)n1-c1ccc(OCc2ccc(Cl)cc2)cc1`, the IC50 was 0.56 µM.

With `CS(=O)(=O)c1nc(-c2ccc(F)cc2)cc(C(F)(F)F)n1`, the IC50 result was “inactive”. In the case of `N#Cc1c(N)nc(SCC(=O)C23CC4CC(CC(C4)C2)C3)c(C#N)c1-c1ccc(Cl)cc1`, the IC50 was > 10 µM (inactive). For `Cc1nn(Cc2c(Cl)cccc2Cl)c(C)c1NC(=O)c1cc(C(C)C)on1`, the IC50 was > 10 µM (inactive). As to `O=C1N(c2ccccc2)C[C@@H]2C[C@@H](c3cccs3)N3CCC[C@@]123`, the IC50 was 2.84 µM. As to `O=C(/C=C/c1ccccc1)Nc1cccc(C(=O)O)c1`, the IC50 result is “inactive”. In the case of `CCOC(=O)c1c(-n2c(C)cc(C=C3C(=O)NC(=S)NC3=O)c2C)sc2c1CCCC2`, the IC50 result is “inactive”.

In the case of `O=C(O)c1cccc(COc2ccccc2Cl)c1`, the IC50 was 0.91 µM.

Turning to `N#C/C(=C\c1ccc([N+](=O)[O-])o1)c1nc2ccccc2[nH]1`, the IC50 was 4.83 µM. As to `CCCCCn1c(=O)c(C(=O)Nc2nc3ccccc3[nH]2)c(O)c2ccccc21`, the IC50 was 4.25 µM. On to `COc1cc(CNCc2ccccn2)ccc1OCc1ccc(Cl)cc1Cl`, for which the IC50 is > 10 µM (inactive). Take `C=CCn1c(SCC(=O)c2[nH]c(C)c(C(=O)OC)c2C)nc2scc(-c3ccc(OC)c(OC)c3)c2c1=O`: the IC50 entry was “inactive”. `Cc1ccc(-n2c(Cl)c(Cl)nc(Cl)c2=O)cc1`: the 50% inhibitory concentration (IC50) was 2.32 µM. Take `O=C(CCl)Nc1ccc(Sc2ccc(NC(=O)CCl)cc2)cc1`: the IC50 was 4.37 µM. Regarding `Cc1ccc(OCC(=O)N2CCN(c3nnc(-c4ccc(C)cc4)c4ccccc34)CC2)cc1`, the IC50 result is “inactive”.

`O=C1C(Nc2ccccc2)=C/C(=N/S(=O)(=O)c2cccs2)c2ccccc21`: the IC50 was 1.17 µM. On to `CC(C)c1nnc(NC(=O)c2c(O)c3cccc4c3n(c2=O)CCC4)s1`, for which the IC50 was 4.37 µM. For `Cc1cc(C2=NNC(=NC3CC3)SC2)c(C)n1-c1ccccc1F`, the IC50 was < 0.16 µM (inactive). In the case of `Cc1cc(C)cc(NC(=O)/C(C#N)=C/c2cn(CC(=O)NCc3ccco3)c3ccccc23)c1`, the IC50 was 4.94 µM. To `COc1ccc2nc(Nc3nc(CSc4nc5ccccc5[nH]4)cc(=O)[nH]3)nc(C)c2c1` belongs > 10 µM (inactive). With `O=C1C(Cl)=C(N2CCCCC2)C(=O)C(Cl)=C1c1cnc(N2CCCCC2)s1`, the IC50 result was “inactive”. In the case of `CN1CC(c2ccccc2)C2(SC(=S)N(Cc3ccco3)C2=O)C12C(=O)Nc1ccccc12` (configuration not stated), the IC50 was > 10 µM (inactive). To `O=C(CCl)N(c1ccc(Cl)cc1)c1c[nH]c2ccccc12` belongs “inactive”. For the compound `Nc1c(C(=O)Nc2ccc(S(=O)(=O)N3CCCC3)cc2)sc2nc3ccc(OC(F)(F)F)cc3cc12`, the IC50 entry is “inactive”. For `C=C(C)COc1ccc(-c2[nH]ncc2Oc2ccccc2OCC)c(O)c1` the value was “inactive”.

Broadly, the IC50 is the concentration that inhibits the measured activity by half.

The record behind these values is PubChem BioAssay AID504313 (Emory University Molecular Libraries Screening Center, 2011).
